Measurements from the supplement of paper PMC10307832.

Experiments:
Assay in all cases: relative viability (nuclei count vs DMSO), 5 days (fraction); higher = more cells survive
Vemurafenib + Pemetrexed = compound: CCCS(=O)(=O)Nc1ccc(F)c(C(=O)c2c[nH]c3ncc(-c4ccc(Cl)cc4)cc23)c1F [Vemurafenib] + Nc1nc2[nH]cc(CCc3ccc(C(=O)N[C@@H](CCC(=O)O)C(=O)O)cc3)c2c(=O)[nH]1 [Pemetrexed] (partner 0.2 µM)
Method in brief: (§1)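 Values are medians from duplicate plates. Each reflects relative viability, defined as the nuclei count of treated wells over that of vehicle wells. Lung cancer cell lines in 1536-well plates were pin-tool dosed one day after seeding with one drug alone or with a fixed anchor-drug dose plus five library-drug doses (not always all listed) in √10 steps, then fixed, stained and imaged at 4× after 5 days.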

OSI-027 + Foretinib = compound: COc1cccc2cc(-c3nc([C@H]4CC[C@H](C(=O)O)CC4)n4ncnc(N)c34)[nH]c12 [OSI-027] + COc1cc2c(Oc3ccc(NC(=O)C4(C(=O)Nc5ccc(F)cc5)CC4)cc3F)ccnc2cc1OCCCN1CCOCC1 [Foretinib] (partner 0.25 µM)
Method in brief: as §1

Alpelisib + Palbociclib = compound: Cc1nc(NC(=O)N2CCC[C@H]2C(N)=O)sc1-c1ccnc(C(C)(C)C(F)(F)F)c1 [Alpelisib] + CC(=O)c1c(C)c2cnc(Nc3ccc(N4CCNCC4)cn3)nc2n(C2CCCC2)c1=O [Palbociclib] (partner 0.5 µM)
Method in brief: as §1

Alpelisib + Vorinostat = compound: Cc1nc(NC(=O)N2CCC[C@H]2C(N)=O)sc1-c1ccnc(C(C)(C)C(F)(F)F)c1 [Alpelisib] + O=C(CCCCCCC(=O)Nc1ccccc1)NO [Vorinostat] (partner 1 µM)
Method in brief: as §1

## UMC-11
Vemurafenib + Pemetrexed; first compound 0.03162 µM
  relative viability: 0.876
Vemurafenib + Pemetrexed; first compound 0.1 µM
  relative viability: 0.662
Vemurafenib + Pemetrexed; first compound 0.3162 µM
  relative viability: 0.717
Vemurafenib + Pemetrexed; first compound 1 µM
  relative viability: 0.707
OSI-027 + Foretinib; first compound 0.01 µM
  relative viability: 0.903
OSI-027 + Foretinib; first compound 0.03162 µM
  relative viability: 0.866
OSI-027 + Foretinib; first compound 0.1 µM
  relative viability: 0.77
OSI-027 + Foretinib; first compound 0.3162 µM
  relative viability: 0.671
OSI-027 + Foretinib; first compound 1 µM
  relative viability: 0.444
Alpelisib + Palbociclib; first compound 0.04 µM
  relative viability: 0.333
Alpelisib + Palbociclib; first compound 0.1265 µM
  relative viability: 0.3
Alpelisib + Palbociclib; first compound 0.4 µM
  relative viability: 0.357
Alpelisib + Palbociclib; first compound 1.265 µM
  relative viability: 0.307
Alpelisib + Palbociclib; first compound 4 µM
  relative viability: 0.328
Alpelisib + Vorinostat; first compound 0.04 µM
  relative viability: 0.374
Alpelisib + Vorinostat; first compound 0.1265 µM
  relative viability: 0.31
Alpelisib + Vorinostat; first compound 0.4 µM
  relative viability: 0.403
Alpelisib + Vorinostat; first compound 1.265 µM
  relative viability: 0.344
Alpelisib + Vorinostat; first compound 4 µM
  relative viability: 0.31
